SMILES strings stand for the structures. Structures can show the parent of a compound that is named as a salt. Some results are limits rather than exact numbers.

Test [1] has as its target Rat recombinant PDE10a (rPDE10a) (Rattus norvegicus (Rat), UniProt Q9QYJ6). Kind of test: In vitro assay PDE10a: rat recombinant PDE10a SPA with 3H-cAMP substrate, IC50. In kind it is biochemical. Particulars: 60 nM cAMP, read-out: rPDE10a2 IC50. The procedure:
In Vitro Assay PDE10a Rat recombinant PDE10a (rPDE10a) was expressed in Sf9 cells using a recombinant rPDE10a baculovirus construct. Cells were harvested after 48 h of infection and the rPDE10a protein was purified by metal chelate chromatography on Ni-sepharose 6FF. Tested compounds were dissolved and diluted in 100% DMSO to a concentration 100 fold of the final concentration in the assay. […] The reaction was incubated for 60 min at rt. After incubation, the reaction was stopped with 20 μL of 17.8 mg/mL PDE SPA beads. […] For blank values the enzyme was omitted from the reaction and replaced by incubation buffer.

Test [2] deals with Human recombinant PDE10A2 (Homo sapiens (Human), UniProt Q9Y233). The test is described as follows: In vitro hPDE10a: human recombinant PDE10A2 scintillation proximity assay, IC50. In kind it is biochemical. Particulars: human recombinant PDE10A2, SPA, 60 nM cAMP; read-out: hPDE10a2 IC50. As for the experimental part:
Cells were harvested and the phosphodiesterase protein was purified by metal chelate chromatography on Ni-sepharose 6FF. The affinity of the compounds of Formula (I) for phophodiesterases (PDE) was measured by a scintillation proximity assay (SPA). PDE Yttrium Silicate SPA beads allow PDE activity to be measured by direct binding of the primary phosphate groups of non-cyclic AMP or GMP to the beads via a complex iron chelation mechanism. The amount of bound tritiated product ([^3H]-AMP) is measured by liquid scintillation counting. The compounds were dissolved and diluted in 100% DMSO in polystyrene plates to a concentration of 100-fold the final concentration in the assay. […] After incubation, the reaction was stopped with 20 μL of stop solution, consisting of PDE SPA beads (17.8 mg beads/mL in 18 mM zinc sulphate). […] To measure the low control, no enzyme was added to the reaction mixture. Data were calculated as the percentage of inhibition of total activity measured in the absence of test compound (% control). […] For compounds tested more than once, the data points were aggregated.
For orientation: In a scintillation proximity assay essentially only radioactivity close to the scintillant gives light.

Sequence of Human recombinant PDE10A2 (Q9Y233 267-1055): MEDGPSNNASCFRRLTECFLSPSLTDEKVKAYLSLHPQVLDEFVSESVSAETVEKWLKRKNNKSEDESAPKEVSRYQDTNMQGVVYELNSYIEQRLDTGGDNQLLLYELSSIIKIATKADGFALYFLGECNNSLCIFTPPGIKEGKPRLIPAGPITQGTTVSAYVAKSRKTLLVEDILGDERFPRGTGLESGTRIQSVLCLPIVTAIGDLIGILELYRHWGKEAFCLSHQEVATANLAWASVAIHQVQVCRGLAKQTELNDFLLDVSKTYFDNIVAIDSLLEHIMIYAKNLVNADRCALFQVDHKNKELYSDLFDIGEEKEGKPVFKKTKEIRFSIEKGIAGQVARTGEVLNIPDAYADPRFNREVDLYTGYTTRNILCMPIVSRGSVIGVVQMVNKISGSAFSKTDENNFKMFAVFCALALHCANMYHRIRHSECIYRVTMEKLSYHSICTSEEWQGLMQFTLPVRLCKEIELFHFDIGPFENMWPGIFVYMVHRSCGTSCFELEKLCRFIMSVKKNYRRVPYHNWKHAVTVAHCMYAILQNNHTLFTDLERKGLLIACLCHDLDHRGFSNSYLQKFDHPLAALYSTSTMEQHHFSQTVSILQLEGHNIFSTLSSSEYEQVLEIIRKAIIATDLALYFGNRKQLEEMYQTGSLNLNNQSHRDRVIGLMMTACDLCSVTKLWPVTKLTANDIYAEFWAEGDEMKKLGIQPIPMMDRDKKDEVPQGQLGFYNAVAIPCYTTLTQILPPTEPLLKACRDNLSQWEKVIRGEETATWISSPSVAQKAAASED
Sequence of Rat recombinant PDE10a (rPDE10a) (Q9QYJ6 whole entry): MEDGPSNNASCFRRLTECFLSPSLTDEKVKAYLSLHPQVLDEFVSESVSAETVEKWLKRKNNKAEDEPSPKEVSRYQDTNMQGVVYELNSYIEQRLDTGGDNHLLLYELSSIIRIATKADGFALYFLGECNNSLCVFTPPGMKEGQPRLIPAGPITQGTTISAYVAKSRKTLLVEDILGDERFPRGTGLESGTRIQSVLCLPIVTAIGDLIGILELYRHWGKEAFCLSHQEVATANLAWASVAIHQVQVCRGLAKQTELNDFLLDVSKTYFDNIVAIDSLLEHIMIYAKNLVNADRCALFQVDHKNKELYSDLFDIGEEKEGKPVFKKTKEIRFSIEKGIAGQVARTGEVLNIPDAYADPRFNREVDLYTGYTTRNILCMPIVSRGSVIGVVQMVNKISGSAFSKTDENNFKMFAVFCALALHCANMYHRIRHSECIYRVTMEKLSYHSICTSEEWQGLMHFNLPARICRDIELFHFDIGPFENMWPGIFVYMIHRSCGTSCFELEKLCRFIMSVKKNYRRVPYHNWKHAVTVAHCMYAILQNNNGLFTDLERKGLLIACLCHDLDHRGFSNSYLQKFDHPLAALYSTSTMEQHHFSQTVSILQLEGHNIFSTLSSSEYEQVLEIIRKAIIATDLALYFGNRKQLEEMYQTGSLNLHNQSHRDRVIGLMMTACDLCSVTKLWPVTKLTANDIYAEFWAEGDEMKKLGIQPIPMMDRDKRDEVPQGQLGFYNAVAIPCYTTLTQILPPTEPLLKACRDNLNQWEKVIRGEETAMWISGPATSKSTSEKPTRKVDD

The term IC50 denotes the concentration that gives 50% inhibition. Regarding `c1ccc2nc(NCc3nc4c(N5CCOCC5)ccnn4c3-c3ccc(N4CCNCC4)nc3)ccc2c1` [Cpd 4, N-((8-Morpholino-3-(6-(piperazin-1-yl)pyridin-3-yl)imidazo[1,2-b]pyridazin-2-yl)methyl)quinolin-2-amine trifluoroacetic acid salt], the IC50 in test [1] worked out at 200 nM; in test [2] it was 155 nM.
As to `COc1cc(C(=O)O)ccc1-c1c(/C=C/c2ccc3ccccc3n2)nc2c(N3CCOCC3)ccnn12` [compound 98, (E)-3-Methoxy-4-(8-morpholino-2-(2-(quinolin-2-yl)vinyl)imidazo[1,2-b]pyridazin-3-yl)benzoic acid], the IC50 in test [1] and in test [2] was 3 nM each time.
Consider `CS(=O)(=O)NC(=O)c1cccc2nc(/C=C/c3nc4c(N5CCOCC5)cc(Cl)nn4c3-c3cccnc3)ccc12` [Cpd 141, (E)-2-(2-(6-Chloro-8-morpholino-3-(pyridin-3-yl)imidazo[1,2-b]pyridazin-2-yl)vinyl)-N-(methylsulfonyl)quinoline-5-carboxamide], for which the IC50 came to 23 nM in test [1] and 58 nM in test [2].
Take `O=C(O)c1ccc(-c2c(/C=C/c3ccc4ccccc4n3)nc3c(N4CCOCC4)ccnn23)o1` [Cpd 58]: the concentration for half-maximal inhibition (IC50) in test [1] worked out at 4 nM; in test [2] it was 2 nM.
For `CC(C)[C@H](NC(=O)c1ccc(-c2c(C#Cc3ccc4ccccc4n3)nc3c(N4CCOCC4)ccnn23)cc1)C(=O)O` [Cpd 101, (S)-3-Methyl-2-(4-(8-morpholino-2-(quinolin-2-ylethynyl)imidazo[1,2-b]pyridazin-3-yl)benzamido)butanoic acid trifluoroacetic acid salt], in that order: 5 nM and 4 nM.
Take `O=C(O)c1ccc(-c2c(C#Cc3ccc4ccccc4n3)nc3c(N4CCOCC4)ccnn23)cc1` [Cpd 77, 4-(8-Morpholino-2-(quinolin-2-ylethynyl)imidazo[1,2-b]pyridazin-3-yl)benzoic acid]: the IC50 in test [1] and in test [2] was under 1 nM each time.
With `CS(=O)(=O)NC(=O)Nc1ccc(-c2c(CCc3ccc4ccccc4n3)nc3c(N4CCOCC4)ccnn23)cc1` [Cpd 51, N-({4-[8-Morpholin-4-yl-2-(2-quinolin-2-ylethyl)imidazo[1,2-b]pyridazin-3-yl]phenyl}carbamoyl)methanesulfonamide], the IC50 amounted to 4 nM in test [1] and 6 nM in test [2].
Regarding `Oc1ccc(-c2c(/C=C/c3ccc4ccccc4n3)nc3c(N4CCOCC4)ccnn23)cn1` [Cpd 16, (E)-5-(8-Morpholino-2-(2-(quinolin-2-yl)vinyl)imidazo[1,2-b]pyridazin-3-yl)pyridin-2-ol], the IC50 in test [1] and in test [2] was 6 nM each time.
`CC(=O)NS(=O)(=O)c1ccc(-c2c(/C=C/c3ccc4ccccc4n3)nc3c(N4CCOCC4)ccnn23)cc1` [compound 36, (E)-N-((4-(8-Morpholino-2-(2-(quinolin-2-yl)vinyl)imidazo[1,2-b]pyridazin-3-yl)phenyl)sulfonyl)acetamide]: the IC50 in test [1] and in test [2] was 2 nM throughout.
`O=C(O)c1ccc(-c2c(C#Cc3ccccn3)nc3c(N4CCOCC4)ccnn23)cc1` [Cpd 86, 4-(8-Morpholino-2-(pyridin-2-ylethynyl)imidazo[1,2-b]pyridazin-3-yl)benzoic acid]: the IC50 in test [1] and in test [2] was 2 nM in each case.
For `O=c1[nH]c(-c2ccc(-c3c(/C=C/c4ccc5ccccc5n4)nc4c(N5CCOCC5)ccnn34)cn2)no1` [Cpd 34, (E)-3-(5-(8-Morpholino-2-(2-(quinolin-2-yl)vinyl)imidazo[1,2-b]pyridazin-3-yl)pyridin-2-yl)-1,2,4-oxadiazol-5(4H)-one], the half-maximal inhibitory concentration (IC50) stood at 2 nM in test [1] and 3 nM in test [2].
As to `O=C(O)c1ccc(-c2c(/C=C/c3ccc4ccccc4n3)nc3c(N4CCOCC4)ccnn23)cc1O` [compound 63, (E)-2-Hydroxy-4-(8-morpholino-2-(2-(quinolin-2-yl)vinyl)imidazo[1,2-b]pyridazin-3-yl)benzoic acid], the half-inhibitory concentration (IC50) in test [1] and in test [2] was 3 nM each time.
`O=C(O)c1cc(/C=C/c2cn3nc(Cl)cc(N4CCOCC4)c3n2)nc2ccccc12` [Cpd 126, 2-[(E)-2-(6-Chloro-8-morpholin-4-ylimidazo[1,2-b]pyridazin-2-yl)ethenyl]quinoline-4-carboxylic acid]: the concentration for half-maximal inhibition (IC50) amounted to 1 nM in test [1] and 2 nM in test [2].
Take `OC(c1ccc(-c2c(CCc3ccc4ccccc4n3)nc3c(N4CCOCC4)ccnn23)cc1)(C(F)(F)F)C(F)(F)F` [compound 53, 1,1,1,3,3,3-Hexafluoro-2-(4-(8-morpholino-2-(2-(quinolin-2-yl)ethyl)imidazo[1,2-b]pyridazin-3-yl)phenyl)propan-2-ol]: the 50% inhibitory concentration (IC50) amounted to 33 nM in test [1] and 41 nM in test [2].
For the compound `CS(=O)(=O)NC(=O)Nc1ccc(-c2c(/C=C/c3ccc4ccccc4n3)nc3c(N4CCOCC4)ccnn23)cc1` [compound 50, (E)-N-((4-(8-Morpholino-2-(2-(quinolin-2-yl)vinyl)imidazo[1,2-b]pyridazin-3-yl)phenyl)carbamoyl)methanesulfonamide], the half-inhibitory concentration (IC50) stood at 3 nM in test [1] and 8 nM in test [2].
Consider `O=C(O)CC1CCN(c2c(/C=C/c3ccc4ccccc4n3)nc3c(N4CCOCC4)ccnn23)CC1` [Cpd 156, (E)-2-(1-(8-Morpholino-2-(2-(quinolin-2-yl)vinyl)imidazo[1,2-b]pyridazin-3-yl)piperidin-4-yl)acetic acid], for which the 50% inhibitory concentration (IC50) in test [1] and in test [2] was 7 nM each time.
As to `O=C(O)C1CCC(Nc2c(/C=C/c3ccc4ccccc4n3)nc3c(N4CCOCC4)ccnn23)CC1` (stereo not drawn) [Cpd 152, (E)-4-((8-Morpholino-2-(2-(quinolin-2-yl)vinyl)imidazo[1,2-b]pyridazin-3-yl)amino)cyclohexanecarboxylic acid], the IC50 in test [1] amounted to 15 nM; in test [2] it was 7 nM.
In the case of `O=C(O)c1ccc(-c2c(CCc3ccc4c(n3)CCCC4)nc3c(N4CCOCC4)ccnn23)cc1` [Cpd 79, 4-(8-Morpholino-2-(2-(5,6,7,8-tetrahydroquinolin-2-yl)ethyl)imidazo[1,2-b]pyridazin-3-yl)benzoic acid trifluoroacetic acid salt], the IC50 was 8 nM in test [1] and 3 nM in test [2].
On to `c1ccc2ncc(OCCc3nc4c(N5CCOCC5)ccnn4c3-c3ccc(N4CCNCC4)nc3)cc2c1` [Cpd 14, 4-(3-(6-(Piperazin-1-yl)pyridin-3-yl)-2-(2-(quinolin-3-yloxy)ethyl)imidazo[1,2-b]pyridazin-8-yl)morpholine trifluoroacetic acid salt], for which the half-maximal inhibitory concentration (IC50) in test [1] turned out to be 776 nM; in test [2], 955 nM.
For `O=C(O)CCNC(=O)c1ccc(-c2c(CCc3ccc4ccccc4n3)nc3c(N4CCOCC4)ccnn23)cc1` [compound 46, 3-(4-(8-Morpholino-2-(2-(quinolin-2-yl)ethyl)imidazo[1,2-b]pyridazin-3-yl)benzamido)propanoic acid], the results for the IC50 in test [1] and in test [2] were 1 nM and 3 nM, respectively.
The like results for `O=C(O)c1ccc(-c2c(/C=C/c3ccccn3)nc3c(N4CCOCC4)ccnn23)cc1` [Cpd 89, (E)-4-(8-Morpholino-2-(2-(pyridin-2-yl)vinyl)imidazo[1,2-b]pyridazin-3-yl)benzoic acid] were, in that order, 62 nM and 89 nM.

The record behind these values is patent publication US9193736B2, “PDE 10a inhibitors for the treatment of type II diabetes” (Janssen Pharmaceutica, NV, priority 2013, dated 2015).
